Columns and labels:
peripheral blood T cells = assay: T cell proliferation assay (Epitope Verification) with synthetic IA-2 peptides; type: cell-based, human; parameters: key: significant ("POS" in Table 2) proliferative responses; settings: HLA-DR4 IDDM patient DC (I), DRB1 genotype 0403.0405; peptide 10 µg/ml, 5 days; significant = SI >2.0 and >40% wells positive
Procedure: To establish that peptide epitopes identified are relevant to IDDM (i.e., that they are recognized by CD4+ T cells of patients with IDDM or pre-IDDM expressing the DR4 molecule but not by non-diabetic controls also expressing the DR4 molecule), T cell proliferation assays were carried out using synthetic peptides having amino acid sequences based upon the peptides identified by mass spectrometry to be derived from IA-2ic. Peptides were synthesized using Fmoc chemistry with an Applied Biosystems SYNERGY peptide synthesizer and purified by preparative RP-HPLC on a Waters 2690 Alliance system equipped with a Radial Compression Module. […] Peripheral blood mononuclear cells from recent onset IDDM patients (<6 months from diagnosis) and healthy controls expressing the appropriate HLA DR4 molecules were separated by density gradient centrifugation and co-cultured in wells of 96-well U-bottom plates with peptides at a concentration of 10 µg/ml for 5 days in 150 µl RPMI 1640/10% pooled normal AB serum, followed by pulsing with 0.5 µCi [^3H]-thymidine/well and harvesting onto filters for radioactivity counting measured in counts per minute (cpm). […] Results were expressed as a stimulation index (SI) which is the ratio of the cpm obtained from cultures containing peptide to the cpm obtained from cultures without peptide (mean cpm of 12 wells in each case). […]

[1] = system: isolated HLA-DR4 molecules; assay: Binding inhibition assay: inhibition of binding of biotinylated invariant chain indicator peptide; parameters: species or system human; settings: HLA-DR4 10 µg/ml, indicator peptide 1 µM, varying concentrations of test peptide, overnight at room temperature (Fig. 3)
Procedure: Synthetic peptides with amino acid sequences based on the 6 core regions identified by the IMF were tested for their ability to bind to isolated HLA-DR4 molecules in a binding inhibition assay performed essentially as previously described [Chicz et al. (1997), J. Immunol. 159: 4935-4942]. In brief, aliquots of immunopurified preparation of HLA-DR4 (final concentration of 10 µg/ml) were incubated with a biotinylated HLA-DR4 binding peptide (consisting of residues 98-117 of class II MHC invariant chain) ("the indicator peptide") (1 µM) and varying concentrations of the test peptides in 0.2 ml tubes. After an overnight incubation at room temperature, the contents of each tube were transferred to a well of a 96-well plastic microtiter plate precoated with anti-HLA-DR4 antibody. The microtiter plates were rocked for 60 min at room temperature and unbound material was removed by rigorous washing. The relative amount of bound standard peptide in each well was determined by measuring color development after addition of streptavidin-conjugated alkaline phosphatase, washing, and adding a chromogenic alkaline phosphatase substrate.
In order to test for the ability of the 6 consensus peptides representing the 6 core regions defined by the IMF described in Example 1, a binding inhibition assay was performed (Fig. 3). […]

In the case of “LAKEWQALCAYQAEPNTCATAQGE [709-732, peptide consisting of residues 709-732 of IA-2]”, the “T cell response to IA-2 peptide” value (peripheral blood T cells) is reported as “POS” and the “binding to HLA-DR4 molecules” value [1] is reported as “bind strongly”.

“Ii-c: a peptide consisting of residues 98-117 of class II MHC invariant chain (PKPPKPVSKMRMATPLLMQA) [reference compound]” was tested, and the “binding to HLA-DR4 molecules” value [1] was “bind with intermediate avidity”.

Reference: patent EP1986011A2, “Peptide epitopes recognized by disease promoting CD4+ T lymphocytes” (MGI PHARMA Biologics, Inc., priority 1999, dated 2008)
